Measured values taken from patent publication US5637309A, “Physiologically active substance-prolonged releasing-type pharmaceutical preparation” (Shiseido Company, Ltd., priority 1993, dated 1997).

Assays:
[1] = test system: basilar artery; test: Cerebral vasospasm inhibition test on maxadilan (SEQ ID NO: 3) by cisterna puncture, angiography of the basilar artery; format: in vivo, Japanese white rabbit; conditions: aqueous solution, 7 μg per kg
Text: Cerebral vasospasm inhibition test on maxadilan (SEQ ID NO: 3)
A Japanese white rabbit (male, weighing 2-3 kg) was subjected to general anesthesia by injection of sodium pentobarbital through the auricular vein. After the rabbit was retained so as not to move, the surroundings of the punctured vein were disinfected with sterilized ethanol, a self-retaining needle was punctured into the vein, and immediately thereafter, a silicone-made extension tube equipped, at one end, with a three way cock connected at the two ways with 10-ml syringes each containing physiological saline and connected at the residual way with a 10-ml syringe containing sodium pentobarbital was connected to the self-retaining needle (when the blood vessel is thin, the blood vessel is stimulated by fingers to dilate it). […]
A spot for angiography was determined by transillumination, the head was fast fixed, back flow of the blood was confirmed, and 0.8 ml of a contrast medium was injected under a certain pressure (2.3 kg/cm^2). […]
Groups of rabbits, one group consisting of 5 animals, were treated as mentioned above, and among them, rabbits were selected wherein when the basilar artery was divided, starting from the junction from the vertebral artery, into three equal parts, and the diameter at the middle point was measured, spasm occurred at a level of 18% or more. […]

[2] = relative to SEQ ID NO: 2; cited from earlier work

Substance: SEQ ID NO: 3: peptide wherein an amino acid sequence residue GSIL- is bonded to the N-terminus of SEQ ID NO: 1 maxadilan
- Inhibition of spasm compared to the sterile water administration group ([1]; 3 days after blood injection): spasm was significantly inhibited
- Duration of significant inhibition of spasm (from immediately after the administration) ([1]; vs sterile water group): about 4 hours
- Vasodilative action (particularly, erythema activities), times higher than that of SEQ ID NO: 2 [2]: about 10 times
